These results are taken from PMC3065546 (Pain, 2011).

Read-outs that look alike come from different tables or passages of the source.

The subject of one experiment is nociceptive thresholds. The format is in vivo, rat. The note with it: for Antagonism of azole-induced antinociception by naltrexone: naltrexone 5 mg/kg i.p. pre-treatment, TF 11 min post-icv azole; for Antinociception of inhibitor alone: large icv doses (250-500 nmol), 7 – 11 min after administration, TF and HP; for Antinociceptive effects of inhibitor alone: icv 50, 250, 500 nmol (fluconazole 250 and 500 nmol), TF or HP.

The target of another experiment is human H3 receptor (Homo sapiens, UniProt Q9Y5N1). The format is binding.
Another experiment concerns the target human κ opioid receptor (Homo sapiens, UniProt P41145). Nature of the experiment: Opioid receptor binding, [3H]U69,593, CHO cell membranes.
The target in another experiment is human δ opioid receptor (Homo sapiens, UniProt P41143). Nature of the experiment: Opioid receptor binding, [3H]naltrindole, CHO cell membranes.
Experiment [1] deals with improgan antinociception. The format is in vivo. The note with it: improgan 250 nmol icv, TF.
In a further experiment the target is human μ opioid receptor (Homo sapiens, UniProt P35372). Nature of the experiment: Opioid receptor binding, [3H]DAMGO, CHO cell membranes.
Experiment [2] deals with brain form of heme oxygenase. The note with it: ref Suppl. Table 1; cited from earlier work.
In experiment [3] the target is T1, cDNA-expressed human CYP2C19 (Homo sapiens, UniProt P33261). Nature of the experiment: biochemical.
The test system of experiment [4] is improgan antinociception. The format is in vivo, mouse. Conditions: for Decrease of average improgan antinociception in Cpr^low vs control mice: improgan 145 nmol icv.
Experiment [5] addresses T1, cDNA-expressed human CYP2C19. The note with it: read-out: Ki CYP2C19; cited from earlier work.

Chain of human δ opioid receptor (P41143 whole entry): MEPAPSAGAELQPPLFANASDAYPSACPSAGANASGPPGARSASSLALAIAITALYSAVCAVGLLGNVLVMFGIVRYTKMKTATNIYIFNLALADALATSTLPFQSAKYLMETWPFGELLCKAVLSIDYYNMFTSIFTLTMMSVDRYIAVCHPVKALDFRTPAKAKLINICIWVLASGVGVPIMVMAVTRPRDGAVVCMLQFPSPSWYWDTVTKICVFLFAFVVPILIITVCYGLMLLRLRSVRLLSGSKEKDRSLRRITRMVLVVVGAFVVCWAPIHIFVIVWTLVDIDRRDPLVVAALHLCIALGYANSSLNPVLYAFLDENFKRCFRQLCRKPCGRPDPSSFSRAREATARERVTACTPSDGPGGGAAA
Chain of human κ opioid receptor (P41145 whole entry): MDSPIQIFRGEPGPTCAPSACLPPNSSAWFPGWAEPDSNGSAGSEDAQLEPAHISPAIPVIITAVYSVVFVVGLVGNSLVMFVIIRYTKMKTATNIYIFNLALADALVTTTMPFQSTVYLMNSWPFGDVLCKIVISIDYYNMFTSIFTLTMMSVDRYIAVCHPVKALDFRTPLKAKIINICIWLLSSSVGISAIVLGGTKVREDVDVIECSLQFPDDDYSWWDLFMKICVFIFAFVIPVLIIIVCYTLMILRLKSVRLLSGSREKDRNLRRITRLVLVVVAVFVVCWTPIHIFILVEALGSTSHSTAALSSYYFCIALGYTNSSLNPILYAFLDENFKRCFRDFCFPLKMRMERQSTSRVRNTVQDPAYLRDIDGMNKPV
Chain of human μ opioid receptor (P35372 whole entry): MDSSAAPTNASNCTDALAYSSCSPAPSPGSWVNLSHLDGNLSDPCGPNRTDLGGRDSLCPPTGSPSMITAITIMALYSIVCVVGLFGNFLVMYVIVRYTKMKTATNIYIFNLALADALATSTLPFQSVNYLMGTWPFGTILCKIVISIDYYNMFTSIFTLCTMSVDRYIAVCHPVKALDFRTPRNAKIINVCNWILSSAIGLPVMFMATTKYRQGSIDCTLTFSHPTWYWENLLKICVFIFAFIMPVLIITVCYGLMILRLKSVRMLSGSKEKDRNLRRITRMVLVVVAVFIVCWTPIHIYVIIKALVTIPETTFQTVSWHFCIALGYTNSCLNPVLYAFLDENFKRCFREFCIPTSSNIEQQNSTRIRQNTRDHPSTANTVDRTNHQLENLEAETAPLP
Chain of human H3 receptor (Q9Y5N1 whole entry): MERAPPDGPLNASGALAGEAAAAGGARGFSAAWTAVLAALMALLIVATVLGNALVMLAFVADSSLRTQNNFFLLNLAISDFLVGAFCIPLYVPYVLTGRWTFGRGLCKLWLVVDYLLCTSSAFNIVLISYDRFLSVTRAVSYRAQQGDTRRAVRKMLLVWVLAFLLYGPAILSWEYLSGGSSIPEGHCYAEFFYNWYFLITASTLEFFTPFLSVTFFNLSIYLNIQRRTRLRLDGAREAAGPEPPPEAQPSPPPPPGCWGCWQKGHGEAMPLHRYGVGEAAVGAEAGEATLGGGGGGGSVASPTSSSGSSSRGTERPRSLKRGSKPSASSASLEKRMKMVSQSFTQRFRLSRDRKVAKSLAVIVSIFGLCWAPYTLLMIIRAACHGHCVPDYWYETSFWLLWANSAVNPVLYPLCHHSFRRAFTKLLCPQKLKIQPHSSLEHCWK
T1 sequence (P33261 whole entry): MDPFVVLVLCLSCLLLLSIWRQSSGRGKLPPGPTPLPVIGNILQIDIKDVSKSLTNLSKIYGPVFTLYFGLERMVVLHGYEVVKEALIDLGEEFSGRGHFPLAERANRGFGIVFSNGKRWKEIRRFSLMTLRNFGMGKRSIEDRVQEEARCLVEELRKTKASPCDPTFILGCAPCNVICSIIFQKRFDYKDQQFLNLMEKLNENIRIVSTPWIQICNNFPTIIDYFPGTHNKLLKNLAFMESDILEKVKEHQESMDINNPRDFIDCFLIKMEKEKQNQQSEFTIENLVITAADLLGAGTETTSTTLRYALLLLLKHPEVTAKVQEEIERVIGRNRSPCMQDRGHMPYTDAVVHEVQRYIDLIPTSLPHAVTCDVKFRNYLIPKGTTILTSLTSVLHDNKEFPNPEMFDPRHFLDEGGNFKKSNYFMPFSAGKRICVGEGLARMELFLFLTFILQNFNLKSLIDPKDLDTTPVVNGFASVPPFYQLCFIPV

As to `Clc1ccc(CSC(Cn2ccnc2)c2ccc(Cl)cc2Cl)cc1` (stereo not drawn) [Sulconazole, sulconazole], the “Antagonism of azole-induced antinociception by naltrexone” value (“Antagonism … by naltrexone” for short) in the experiment on nociceptive thresholds was “completely blocked”.
The Ki is a dissociation constant, usually derived from enzyme kinetics or from competition with a known ligand. In the case of `Clc1ccc(COC(Cn2ccnc2)c2ccc(Cl)cc2Cl)c(Cl)c1` (stereo not drawn) [Miconazole, miconazole], the inhibition constant (Ki) on human H3 receptor was determined as 4470 nM; at human κ opioid receptor, 760 ± 120 nM; on human δ opioid receptor, 590 ± 29 nM; on human μ opioid receptor, 1400 nM. The “Antagonism of improgan antinociception” value with improgan antinociception [1] (inhibitor 10 nmol icv) is reported as “nearly-complete antagonism”. In addition, the “Antinociception of inhibitor alone” value with nociceptive thresholds is reported as “notable antinociception”. For the same compound, the “Antagonism … by naltrexone” value with nociceptive thresholds is on record as “did not achieve robust statistical significance”.
Turning to `CC(=O)N1CCN(c2ccc(OCC3COC(Cn4ccnc4)(c4ccc(Cl)cc4Cl)O3)cc2)CC1` (stereo not drawn) [Ketoconazole, ketoconazole], the Ki on human κ opioid receptor, at human δ opioid receptor and at human μ opioid receptor was greater than 10000 nM each time. For the same compound, the “Antinociception of inhibitor alone” value in the experiment with nociceptive thresholds is recorded as “notable antinociception”. The “Antagonism … by naltrexone” value in the experiment on nociceptive thresholds was “but not that produced by ketoconazole”.
On to `OC(Cn1cncn1)(Cn1cncn1)c1ccc(F)cc1F` [Fluconazole, fluconazole], for which the “Antagonism of improgan antinociception” value in the experiment with improgan antinociception [1] (inhibitor 100 nmol icv) is on record as “nearly-complete antagonism”. Besides, the “Inhibition of the brain form of heme oxygenase” value in experiment [2] is given as “do not inhibit”. For the same compound, in the experiment with nociceptive thresholds, the “Antinociceptive effects of inhibitor alone” value is recorded as “no significant antinociceptive effects”.
Turning to `Clc1ccccc1C(c1ccccc1)(c1ccccc1)n1ccnc1` [Clotrimazole, clotrimazole], the Ki came to 260 ± 8.7 nM at human κ opioid receptor, 770 ± 25 nM at human δ opioid receptor and 316 nM in experiment [3]. The “Antinociceptive effects of inhibitor alone” value in the experiment with nociceptive thresholds was “no significant antinociceptive effects”.
For the compound `CN/C(=N\C#N)NCCCc1c[nH]cn1` [Improgan], in the experiment on improgan antinociception [4] (145 nmol icv, 10 - 30 min after administration, tail immersion), the “Antinociception in wild-type mice” value is given as “significant, near-maximal antinociception”. Also, the “Decrease of average improgan antinociception in Cpr^low vs control mice” value is 59% in the experiment with improgan antinociception [4] (no CC12, 10 min); 37% with improgan antinociception [4] (no CC12, 20 min); 41% in the experiment with improgan antinociception [4] (no CC12, 30 min).
Regarding `C#CCOc1ccccc1CCCCCC(=O)NS(C)(=O)=O` [MS-PPOH, N-methylsulfonyl-6-(2-propargyloxyphenyl)hexanamide], the Ki in experiment [5] is greater than 10000 nM; at human H3 receptor it was 22200 nM; at human κ opioid receptor, greater than 10000 nM; on human δ opioid receptor, greater than 10000 nM; on human μ opioid receptor, greater than 10000 nM. The “Attenuation of improgan antinociception” value with improgan antinociception [1] (inhibitor 30 nmol icv) is given as “virtually complete attenuation”.
